Assays:
5-HT6 receptor = 5-HT6 receptor (Rattus norvegicus, UniProt P31388); conditions: cited from earlier work
[1] = biological target: M2 muscarinic acetylcholine receptor (Homo sapiens, UniProt P08172); conditions: expressed as KD; cited from earlier work
D1 dopamine receptor [2] = biological target: D1 dopamine receptor (Rattus norvegicus, UniProt P18901); conditions: cited from earlier work
[3] = system: 5-HT2C receptor relative to 5-HT2A and D2 receptors; experiment: Relative 5-HT2C affinity (formula I, sum of 5-HT2C/5-HT2A and 5-HT2C/D2 affinity ratios); conditions: Table 2; sum of affinity ratios from data of Table 1
D4 dopamine receptor [4] = biological target: T1, D4 dopamine receptor (Rattus norvegicus, UniProt P30729); conditions: cited from earlier work
T1 sequence (P30729 1-387): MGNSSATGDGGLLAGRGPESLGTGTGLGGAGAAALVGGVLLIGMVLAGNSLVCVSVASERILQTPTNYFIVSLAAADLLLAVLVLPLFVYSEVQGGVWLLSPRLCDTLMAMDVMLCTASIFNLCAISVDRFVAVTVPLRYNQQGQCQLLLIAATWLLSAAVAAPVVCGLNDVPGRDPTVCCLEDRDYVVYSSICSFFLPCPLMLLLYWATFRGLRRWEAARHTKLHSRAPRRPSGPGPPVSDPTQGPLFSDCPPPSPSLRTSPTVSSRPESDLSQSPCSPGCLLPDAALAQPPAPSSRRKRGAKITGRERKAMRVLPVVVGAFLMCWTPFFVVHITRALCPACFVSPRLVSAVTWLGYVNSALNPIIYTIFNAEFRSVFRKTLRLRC

[5] = biological target: M3 muscarinic acetylcholine receptor (Homo sapiens, UniProt P20309); conditions: expressed as KD; cited from earlier work
5-HT2C/5-HT2A = 5-HT2C/5-HT2A receptor affinity ratio; type: binding, human; conditions: Table 2; affinity ratio from data of Table 1
5-HT2A/D2 = 5-HT2A/D2 receptor affinity ratio; type: binding, human; conditions: Table 2; affinity ratio from data of Table 1
5-HT7 receptor [6] = biological target: 5-HT7 receptor (Rattus norvegicus, UniProt P32305); conditions: cited from earlier work
[7] = biological target: M1 muscarinic acetylcholine receptor (Homo sapiens, UniProt P11229); conditions: expressed as KD; cited from earlier work
[8] = biological target: T2, M5 muscarinic acetylcholine receptor (Homo sapiens, UniProt P08912); conditions: expressed as KD; cited from earlier work
T2 sequence (P08912 1-532): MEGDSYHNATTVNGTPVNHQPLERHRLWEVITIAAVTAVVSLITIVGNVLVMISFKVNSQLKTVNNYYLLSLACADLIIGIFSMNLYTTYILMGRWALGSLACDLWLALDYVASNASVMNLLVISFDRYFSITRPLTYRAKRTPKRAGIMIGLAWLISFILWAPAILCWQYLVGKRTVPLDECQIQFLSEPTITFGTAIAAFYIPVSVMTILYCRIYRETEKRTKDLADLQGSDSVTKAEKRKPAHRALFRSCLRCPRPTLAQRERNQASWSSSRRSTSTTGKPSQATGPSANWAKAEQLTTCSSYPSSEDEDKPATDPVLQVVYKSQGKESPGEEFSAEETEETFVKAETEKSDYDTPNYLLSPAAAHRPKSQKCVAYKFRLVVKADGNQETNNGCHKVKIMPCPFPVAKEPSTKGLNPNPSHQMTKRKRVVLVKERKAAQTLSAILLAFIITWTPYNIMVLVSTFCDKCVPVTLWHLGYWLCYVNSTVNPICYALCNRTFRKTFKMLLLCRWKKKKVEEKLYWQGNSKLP

[9] = biological target: T3, M4 muscarinic acetylcholine receptor (Homo sapiens, UniProt P08173); conditions: expressed as KD; cited from earlier work
T3 sequence (P08173 1-479): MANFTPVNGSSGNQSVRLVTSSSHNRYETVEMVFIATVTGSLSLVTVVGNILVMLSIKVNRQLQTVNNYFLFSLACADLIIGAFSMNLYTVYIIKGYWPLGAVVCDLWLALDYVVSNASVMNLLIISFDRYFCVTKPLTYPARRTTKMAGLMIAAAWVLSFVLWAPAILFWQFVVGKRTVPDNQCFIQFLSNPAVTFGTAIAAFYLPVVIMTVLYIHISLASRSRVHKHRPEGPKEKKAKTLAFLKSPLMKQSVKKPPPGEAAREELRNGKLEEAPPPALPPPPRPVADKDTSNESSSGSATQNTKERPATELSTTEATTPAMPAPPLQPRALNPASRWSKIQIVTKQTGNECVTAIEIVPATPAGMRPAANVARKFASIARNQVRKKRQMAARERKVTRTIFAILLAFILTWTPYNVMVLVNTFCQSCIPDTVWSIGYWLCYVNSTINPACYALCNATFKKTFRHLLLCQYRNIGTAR

5-HT2C/D2 = 5-HT2C/D2 receptor affinity ratio; type: binding, human; conditions: Table 2; affinity ratio from data of Table 1
5-HT1A receptor [10] = biological target: 5-HT1A receptor (Homo sapiens, UniProt P08908); conditions: cited from earlier work
5-HT7 receptor [11] = biological target: 5-HT7 receptor (Mus musculus, UniProt P32304); conditions: cited from earlier work
α2-adrenoceptor [12] = conditions: species for α2 not stated; cited from earlier work
5-HT2C receptor = biological target: T4, 5-HT2C receptor (Sus scrofa, UniProt K7GSR7); conditions: pig; cited from earlier work
T4 sequence (K7GSR7 1-457): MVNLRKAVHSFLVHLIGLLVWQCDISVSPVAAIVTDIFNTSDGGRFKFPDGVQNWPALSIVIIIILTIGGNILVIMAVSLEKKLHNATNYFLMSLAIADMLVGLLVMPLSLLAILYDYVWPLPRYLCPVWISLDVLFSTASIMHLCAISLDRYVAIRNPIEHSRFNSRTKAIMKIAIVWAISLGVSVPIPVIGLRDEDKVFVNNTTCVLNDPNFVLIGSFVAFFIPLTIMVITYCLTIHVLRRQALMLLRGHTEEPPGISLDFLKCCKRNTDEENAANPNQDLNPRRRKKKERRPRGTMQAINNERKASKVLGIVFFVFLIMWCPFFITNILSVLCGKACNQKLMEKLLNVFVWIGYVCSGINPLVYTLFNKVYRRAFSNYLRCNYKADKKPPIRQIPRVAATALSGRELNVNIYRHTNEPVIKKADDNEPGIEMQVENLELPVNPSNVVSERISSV

sigma, σ receptor = conditions: guinea-pig; cited from earlier work
5-HT3 receptor = biological target: T5, 5-HT3 receptor (Mus musculus, UniProt P23979); conditions: cited from earlier work
T5 sequence (P23979 24-489): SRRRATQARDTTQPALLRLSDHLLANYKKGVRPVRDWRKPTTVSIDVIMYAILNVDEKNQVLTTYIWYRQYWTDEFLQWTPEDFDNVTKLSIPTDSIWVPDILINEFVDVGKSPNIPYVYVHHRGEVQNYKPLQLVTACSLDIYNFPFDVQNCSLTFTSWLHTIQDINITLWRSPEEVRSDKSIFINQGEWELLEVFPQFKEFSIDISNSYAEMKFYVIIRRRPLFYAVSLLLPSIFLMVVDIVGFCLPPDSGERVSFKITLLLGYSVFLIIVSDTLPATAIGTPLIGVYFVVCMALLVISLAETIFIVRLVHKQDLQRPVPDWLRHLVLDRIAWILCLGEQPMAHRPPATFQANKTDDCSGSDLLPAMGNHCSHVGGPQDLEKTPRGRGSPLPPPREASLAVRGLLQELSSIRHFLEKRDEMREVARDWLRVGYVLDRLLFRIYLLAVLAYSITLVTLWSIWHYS

α1-adrenoceptor [13] = conditions: species for α1 not given; cited from earlier work
[14] = biological target: mACh, muscarinic acetylcholine receptor; conditions: rat; cited from earlier work
[15] = biological target: D2-S (short form of D2 receptor) (Homo sapiens, UniProt P14416); conditions: cited from earlier work
[16] = biological target: D2-L (long form of D2 receptor) (Homo sapiens, UniProt P14416); conditions: cited from earlier work
H1 histamine receptor = H1 histamine receptor (Cavia porcellus, UniProt P31389); conditions: guinea-pig; cited from earlier work
D4 dopamine receptor [17] = biological target: T6, D4 dopamine receptor (Homo sapiens, UniProt P21917); conditions: human; cited from earlier work
T6 sequence (P21917 1-419): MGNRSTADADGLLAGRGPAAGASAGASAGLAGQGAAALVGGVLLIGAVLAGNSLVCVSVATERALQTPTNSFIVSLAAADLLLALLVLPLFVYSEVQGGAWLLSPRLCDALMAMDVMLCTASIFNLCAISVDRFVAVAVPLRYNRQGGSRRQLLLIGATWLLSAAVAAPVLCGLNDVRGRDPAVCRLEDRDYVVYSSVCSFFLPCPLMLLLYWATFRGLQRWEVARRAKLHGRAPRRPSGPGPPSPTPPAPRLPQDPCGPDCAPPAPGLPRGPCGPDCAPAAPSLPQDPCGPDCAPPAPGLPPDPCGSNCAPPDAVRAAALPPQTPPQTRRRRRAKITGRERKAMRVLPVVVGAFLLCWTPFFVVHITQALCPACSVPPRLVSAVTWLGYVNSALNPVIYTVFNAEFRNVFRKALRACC

[18] = biological target: mACh, muscarinic acetylcholine receptor; conditions: human, expressed as KD; cited from earlier work
α2-adrenoceptor [19] = conditions: human, expressed as KD; cited from earlier work
D1 dopamine receptor [20] = biological target: D1 dopamine receptor (Homo sapiens, UniProt P21728); conditions: cited from earlier work
α1-adrenoceptor [21] = conditions: human, expressed as KD; cited from earlier work
5-HT1A receptor [22] = biological target: T7, 5-HT1A receptor (Rattus norvegicus, UniProt P19327); conditions: cited from earlier work
T7 sequence (P19327 1-422): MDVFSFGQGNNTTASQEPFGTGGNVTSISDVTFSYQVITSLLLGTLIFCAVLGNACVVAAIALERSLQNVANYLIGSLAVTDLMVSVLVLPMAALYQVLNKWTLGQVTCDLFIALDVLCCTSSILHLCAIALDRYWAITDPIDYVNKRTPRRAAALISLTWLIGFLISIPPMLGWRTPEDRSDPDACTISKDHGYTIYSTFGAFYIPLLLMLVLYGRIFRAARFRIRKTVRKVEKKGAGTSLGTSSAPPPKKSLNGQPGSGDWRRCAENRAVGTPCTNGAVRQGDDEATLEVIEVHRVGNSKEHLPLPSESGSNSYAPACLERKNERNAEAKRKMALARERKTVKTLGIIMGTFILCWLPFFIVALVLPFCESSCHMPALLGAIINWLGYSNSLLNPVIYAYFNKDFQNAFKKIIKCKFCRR

Sequence of 5-HT6 receptor (P31388 whole entry): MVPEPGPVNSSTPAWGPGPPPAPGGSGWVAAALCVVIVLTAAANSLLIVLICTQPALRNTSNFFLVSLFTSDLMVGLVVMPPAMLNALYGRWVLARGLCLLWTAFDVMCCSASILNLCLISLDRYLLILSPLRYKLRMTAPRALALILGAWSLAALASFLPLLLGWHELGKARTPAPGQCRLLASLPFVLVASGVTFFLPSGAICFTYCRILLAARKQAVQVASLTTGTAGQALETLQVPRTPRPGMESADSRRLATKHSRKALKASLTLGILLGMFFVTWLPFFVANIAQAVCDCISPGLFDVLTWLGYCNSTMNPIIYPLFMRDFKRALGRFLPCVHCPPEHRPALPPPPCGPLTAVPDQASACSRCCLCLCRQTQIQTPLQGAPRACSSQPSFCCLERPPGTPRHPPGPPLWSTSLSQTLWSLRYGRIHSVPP
Sequence of 5-HT7 receptor (Rattus norvegicus, UniProt P32305) (P32305 whole entry): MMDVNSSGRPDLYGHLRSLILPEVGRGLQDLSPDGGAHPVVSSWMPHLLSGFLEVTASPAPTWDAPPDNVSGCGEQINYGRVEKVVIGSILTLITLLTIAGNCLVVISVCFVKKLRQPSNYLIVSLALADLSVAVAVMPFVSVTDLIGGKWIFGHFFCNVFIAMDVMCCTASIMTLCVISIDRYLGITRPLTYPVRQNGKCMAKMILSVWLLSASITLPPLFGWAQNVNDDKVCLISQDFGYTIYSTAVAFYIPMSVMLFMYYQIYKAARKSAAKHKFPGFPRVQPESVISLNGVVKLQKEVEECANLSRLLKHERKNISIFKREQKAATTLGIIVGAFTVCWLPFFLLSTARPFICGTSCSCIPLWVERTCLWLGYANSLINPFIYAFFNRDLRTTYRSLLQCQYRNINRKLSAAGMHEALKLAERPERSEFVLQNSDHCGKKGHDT
Sequence of M3 muscarinic acetylcholine receptor (P20309 whole entry): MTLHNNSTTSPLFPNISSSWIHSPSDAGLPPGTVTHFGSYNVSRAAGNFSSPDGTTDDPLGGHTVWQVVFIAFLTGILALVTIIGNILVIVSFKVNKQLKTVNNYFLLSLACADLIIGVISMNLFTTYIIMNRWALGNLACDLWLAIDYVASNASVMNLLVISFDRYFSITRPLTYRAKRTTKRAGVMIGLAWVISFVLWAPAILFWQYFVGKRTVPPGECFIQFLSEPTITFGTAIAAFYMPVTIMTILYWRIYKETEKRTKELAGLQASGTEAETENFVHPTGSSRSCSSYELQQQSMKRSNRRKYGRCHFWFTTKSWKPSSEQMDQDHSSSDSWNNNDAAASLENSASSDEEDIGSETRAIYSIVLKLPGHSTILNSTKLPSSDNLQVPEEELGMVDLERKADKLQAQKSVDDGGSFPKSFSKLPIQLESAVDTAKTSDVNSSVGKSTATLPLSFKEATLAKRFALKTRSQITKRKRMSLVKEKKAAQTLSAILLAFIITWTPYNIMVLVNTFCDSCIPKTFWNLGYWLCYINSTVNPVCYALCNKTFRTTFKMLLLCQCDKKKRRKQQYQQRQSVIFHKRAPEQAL
Sequence of H1 histamine receptor (P31389 whole entry): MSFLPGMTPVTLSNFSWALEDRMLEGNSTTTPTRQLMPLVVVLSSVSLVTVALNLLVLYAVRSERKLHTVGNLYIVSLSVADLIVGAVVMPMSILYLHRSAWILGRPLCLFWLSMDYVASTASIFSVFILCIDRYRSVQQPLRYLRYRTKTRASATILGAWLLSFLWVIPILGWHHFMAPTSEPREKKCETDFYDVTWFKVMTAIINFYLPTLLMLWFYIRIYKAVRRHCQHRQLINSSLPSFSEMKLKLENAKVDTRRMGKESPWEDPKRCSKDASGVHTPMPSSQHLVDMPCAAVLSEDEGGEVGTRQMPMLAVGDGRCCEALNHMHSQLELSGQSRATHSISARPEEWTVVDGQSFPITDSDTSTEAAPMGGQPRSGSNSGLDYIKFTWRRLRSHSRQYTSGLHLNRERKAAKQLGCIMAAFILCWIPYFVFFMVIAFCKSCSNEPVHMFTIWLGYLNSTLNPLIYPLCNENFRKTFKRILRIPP
Sequence of M2 muscarinic acetylcholine receptor (P08172 whole entry): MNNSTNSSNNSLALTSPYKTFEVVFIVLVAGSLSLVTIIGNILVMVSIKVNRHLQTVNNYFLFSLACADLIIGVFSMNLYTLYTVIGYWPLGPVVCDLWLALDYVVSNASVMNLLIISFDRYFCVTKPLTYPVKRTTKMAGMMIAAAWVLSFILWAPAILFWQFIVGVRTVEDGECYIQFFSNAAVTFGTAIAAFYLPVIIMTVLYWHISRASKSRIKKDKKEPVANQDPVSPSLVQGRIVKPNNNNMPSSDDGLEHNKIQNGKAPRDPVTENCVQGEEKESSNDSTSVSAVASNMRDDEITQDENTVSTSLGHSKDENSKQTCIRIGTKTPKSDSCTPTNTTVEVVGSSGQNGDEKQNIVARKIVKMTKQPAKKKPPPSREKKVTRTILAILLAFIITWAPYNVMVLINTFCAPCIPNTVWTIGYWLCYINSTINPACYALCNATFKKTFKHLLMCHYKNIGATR
Sequence of D1 dopamine receptor (Rattus norvegicus, UniProt P18901) (P18901 whole entry): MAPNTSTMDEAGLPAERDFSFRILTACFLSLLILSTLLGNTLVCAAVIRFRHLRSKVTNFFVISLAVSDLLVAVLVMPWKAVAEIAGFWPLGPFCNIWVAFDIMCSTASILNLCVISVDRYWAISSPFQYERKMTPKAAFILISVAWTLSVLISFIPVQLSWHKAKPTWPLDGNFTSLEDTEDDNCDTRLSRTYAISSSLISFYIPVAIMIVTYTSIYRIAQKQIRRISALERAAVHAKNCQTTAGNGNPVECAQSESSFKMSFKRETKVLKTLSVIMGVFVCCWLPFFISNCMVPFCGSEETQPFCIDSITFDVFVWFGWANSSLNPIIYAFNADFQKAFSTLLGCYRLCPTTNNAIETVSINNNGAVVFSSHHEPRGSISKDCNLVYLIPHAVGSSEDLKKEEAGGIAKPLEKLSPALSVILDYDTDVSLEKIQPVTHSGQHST
Sequence of M1 muscarinic acetylcholine receptor (P11229 whole entry): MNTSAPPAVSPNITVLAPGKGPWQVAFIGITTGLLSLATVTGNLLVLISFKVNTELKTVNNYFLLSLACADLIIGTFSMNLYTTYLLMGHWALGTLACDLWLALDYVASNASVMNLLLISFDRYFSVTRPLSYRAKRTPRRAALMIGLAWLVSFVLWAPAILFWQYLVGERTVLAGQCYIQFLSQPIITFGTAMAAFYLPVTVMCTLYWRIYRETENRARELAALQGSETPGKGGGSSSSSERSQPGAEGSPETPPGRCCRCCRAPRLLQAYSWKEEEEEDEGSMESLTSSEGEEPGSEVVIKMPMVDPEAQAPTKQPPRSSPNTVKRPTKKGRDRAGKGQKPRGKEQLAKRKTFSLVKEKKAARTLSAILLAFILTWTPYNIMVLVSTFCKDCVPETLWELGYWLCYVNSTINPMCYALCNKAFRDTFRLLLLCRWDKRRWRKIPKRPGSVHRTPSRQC
Sequence of 5-HT1A receptor (Homo sapiens, UniProt P08908) (P08908 whole entry): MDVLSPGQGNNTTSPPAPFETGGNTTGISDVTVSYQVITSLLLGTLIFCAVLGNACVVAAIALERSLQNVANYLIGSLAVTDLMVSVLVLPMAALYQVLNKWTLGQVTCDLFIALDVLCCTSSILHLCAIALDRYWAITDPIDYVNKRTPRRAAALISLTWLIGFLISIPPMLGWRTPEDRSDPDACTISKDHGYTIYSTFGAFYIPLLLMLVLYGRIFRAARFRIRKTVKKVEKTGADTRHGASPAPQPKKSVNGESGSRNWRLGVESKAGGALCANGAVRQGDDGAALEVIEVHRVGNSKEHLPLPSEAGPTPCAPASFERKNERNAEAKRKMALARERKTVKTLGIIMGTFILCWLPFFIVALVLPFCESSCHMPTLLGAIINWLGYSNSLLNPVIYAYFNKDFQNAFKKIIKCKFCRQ
Sequence of D1 dopamine receptor (Homo sapiens, UniProt P21728) (P21728 whole entry): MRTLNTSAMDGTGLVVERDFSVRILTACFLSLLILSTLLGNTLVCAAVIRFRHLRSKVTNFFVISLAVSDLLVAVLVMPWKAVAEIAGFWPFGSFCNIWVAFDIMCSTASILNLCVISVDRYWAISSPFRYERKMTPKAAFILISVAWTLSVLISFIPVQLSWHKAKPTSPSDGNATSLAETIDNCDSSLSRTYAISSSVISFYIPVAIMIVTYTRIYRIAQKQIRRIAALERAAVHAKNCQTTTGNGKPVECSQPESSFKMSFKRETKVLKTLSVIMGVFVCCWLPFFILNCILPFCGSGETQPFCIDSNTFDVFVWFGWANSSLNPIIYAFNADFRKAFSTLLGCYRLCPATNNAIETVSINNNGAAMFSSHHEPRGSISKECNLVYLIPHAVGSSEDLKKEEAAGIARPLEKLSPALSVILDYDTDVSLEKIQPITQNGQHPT
Sequence of 5-HT7 receptor (Mus musculus, UniProt P32304) (P32304 whole entry): as the sequence (P32305 whole entry) above, with G27R, P39S, L53P, P279S, S438C counted along it
Sequence of D2-L (long form of D2 receptor) (P14416 whole entry): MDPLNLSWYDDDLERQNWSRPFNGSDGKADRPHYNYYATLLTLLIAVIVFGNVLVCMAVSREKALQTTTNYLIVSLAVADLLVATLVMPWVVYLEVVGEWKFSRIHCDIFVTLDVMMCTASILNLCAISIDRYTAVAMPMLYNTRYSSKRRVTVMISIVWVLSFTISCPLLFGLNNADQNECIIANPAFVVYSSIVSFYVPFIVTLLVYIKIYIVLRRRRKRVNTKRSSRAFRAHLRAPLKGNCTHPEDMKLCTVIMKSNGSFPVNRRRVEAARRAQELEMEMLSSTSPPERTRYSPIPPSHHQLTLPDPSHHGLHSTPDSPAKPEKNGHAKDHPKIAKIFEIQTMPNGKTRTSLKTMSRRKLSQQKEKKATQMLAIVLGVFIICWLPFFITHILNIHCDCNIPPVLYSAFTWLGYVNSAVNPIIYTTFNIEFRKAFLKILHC

Compound | 5-HT6 affinity value (−logKi) (5-HT6 receptor) | M2 affinity value (−log KD) [1] | D1 affinity value (−logKi) (D1 dopamine receptor [2]) | (2C/2A) + (2C/D2) [3] | D4 affinity value (−logKi) (D4 dopamine receptor [4]) | M3 affinity value (−log KD) [5] | 5-HT7 affinity value (−logKi) (5-HT7 receptor [6]) | M1 affinity value (−log KD) [7] | M5 affinity value (−log KD) [8] | M4 affinity value (−log KD) [9] | 5-HT2C affinity value (−logKi) (5-HT2C receptor) | sigma affinity value (−logKi) (sigma, σ receptor) | α1 affinity value (−logKi) (α1-adrenoceptor [13]) | mACh affinity value (−logKi) [14] | H1 affinity value (−logKi) (H1 histamine receptor) | D4 affinity value (−logKi) (D4 dopamine receptor [17]) | other results
CN1CCN(C2=Nc3cc(F)ccc3Cc3ccccc32)CC1 [Fluperlapine] | 7.8^2 | 7.1^15 | 6.8^8 | 2.13 | 6.9^4 | 7.4^15 | 8.3^2 | 8.1^15 | 7.7^15 | 7.9^15 |  |  |  |  |  |  | 5-HT2C/5-HT2A (2C/2A) (5-HT2C/5-HT2A): 0.95; 5-HT2A/D2 (5-HT2A/D2): 1.25; 5-HT2C/D2 (2C/D2) (5-HT2C/D2): 1.18
CN1CCN(C2=Nc3ccccc3Oc3ccc(Cl)cc32)CC1 [Loxapine] |  |  | 7.5^18 |  | 7.9^4 | 6.4^15 |  | 7.2^15 | 6.6^15 | 6.5^15 |  |  |  |  |  |  | 5-HT1A affinity value (−logKi) (5-HT1A receptor [10]): 5.5^5
NC(=O)C1(N2CCCCC2)CCN(CCCC(=O)c2ccc(F)cc2)CC1 [Pipamperone] |  |  |  | 1.83 |  |  |  |  |  |  | 6.9^6 | 7.3^6 | 7.2^6 | <5.3^6 | <5.3^6 | 8.3^6 | 5-HT7 affinity value (−logKi) (5-HT7 receptor [11]): 6.8^6; α2 affinity value (−logKi) (α2-adrenoceptor [12]): 6.2^6; 5-HT3 affinity value (−logKi) (5-HT3 receptor): <5.3^6; D2-S affinity value (−logKi) [15]: 7.0^6; D2-L affinity value (−logKi) [16]: 6.9^6
CN1CCN(CC/C=C2/c3ccccc3Sc3ccc(S(=O)(=O)N(C)C)cc32)CC1 [Thiothixene] | 7.4^2 | 5.7^15 |  | 1.43 | 7.1^4 | 5.8^15 | 7.9^2 |  | 5.4^15 | 5.8^15 |  |  |  |  |  |  | mACh affinity value (−log KD) [18]: 5.5^16; α2 affinity value (−log KD) (α2-adrenoceptor [19]): 6.7^16; D1 affinity value (−logKi) (D1 dopamine receptor [20]): 6.5^9; α1 affinity value (−log KD) (α1-adrenoceptor [21]): 8.0^16
CN(C)CCOC1=Cc2ccccc2Sc2ccc(Cl)cc21 [Zotepine] | 9.0^2 |  |  | 2.02 | 8.2^4 |  | 8.8^2 |  | 6.6^15 | 7.1^15 | 8.5^6 | 6.3^6 | 8.5^6 | 6.3^6 | 8.5^6 | 7.4^6 | 5-HT1A affinity value (−logKi) (5-HT1A receptor [22]): 6.5^6

From patent US20060229299A1, “5ht2c Receptor antagonists in the treatment of schizophrenia” (priority 2003, published 2006)
